We go through 11 compounds from patent US11208386B2, “Inhibitors of protein arginine deiminases (PADs) and methods of preparation and use thereof” (University of Massachusetts, priority 2016, dated 2021).

What all share (type): biochemical
In one assay the target is T1, PAD4 (Homo sapiens, UniProt Q9UM07).
T1 construct: made in house
Briefly: Inactivation kinetics, PAD4. The note with it: for kinact/KI: a: single kobs determined, b: from a linear fit; for Fold PAD4 Selectivity: kinact/KI relative to least inhibited isozyme (1.0). Here is the method: (§1) Inactivation kinetic parameters were determined by incubating PAD1, 2, or 4 (2.0 μM) or PAD3 (5.0 μM) in a pre-warmed (10 min; 37° C.) inactivation mixture (50 mM HEPES, 10 mM CaCl2, and 2 mM DTT, pH 7.6, with a final volume of 60 μL) containing various concentrations of inhibitor. Aliquots were removed at various time points and added to a pre-warmed (10 min, 37° C.) reaction mixture (50 mM HEPES, 50 mM NaCl, 10 mM CaC2, 2 mM DTT, and 10 mM BAEE or 10 mM BAA in the case of PAD3; pH 7.6). After 15 min, reactions were quenched in liquid nitrogen and citrulline production quantified using the COLDER assay. […] In Vitro Labeling of PADs with “Clickable” Probes BB-F-Yne (5u), BB-Cl-Yne (5v) and BIFYne (5w)

The target in the next assay is T2, PAD3 (Homo sapiens, UniProt Q9ULW8).
T2 construct: made in house
T2 sequence (Q9ULW8 1-664): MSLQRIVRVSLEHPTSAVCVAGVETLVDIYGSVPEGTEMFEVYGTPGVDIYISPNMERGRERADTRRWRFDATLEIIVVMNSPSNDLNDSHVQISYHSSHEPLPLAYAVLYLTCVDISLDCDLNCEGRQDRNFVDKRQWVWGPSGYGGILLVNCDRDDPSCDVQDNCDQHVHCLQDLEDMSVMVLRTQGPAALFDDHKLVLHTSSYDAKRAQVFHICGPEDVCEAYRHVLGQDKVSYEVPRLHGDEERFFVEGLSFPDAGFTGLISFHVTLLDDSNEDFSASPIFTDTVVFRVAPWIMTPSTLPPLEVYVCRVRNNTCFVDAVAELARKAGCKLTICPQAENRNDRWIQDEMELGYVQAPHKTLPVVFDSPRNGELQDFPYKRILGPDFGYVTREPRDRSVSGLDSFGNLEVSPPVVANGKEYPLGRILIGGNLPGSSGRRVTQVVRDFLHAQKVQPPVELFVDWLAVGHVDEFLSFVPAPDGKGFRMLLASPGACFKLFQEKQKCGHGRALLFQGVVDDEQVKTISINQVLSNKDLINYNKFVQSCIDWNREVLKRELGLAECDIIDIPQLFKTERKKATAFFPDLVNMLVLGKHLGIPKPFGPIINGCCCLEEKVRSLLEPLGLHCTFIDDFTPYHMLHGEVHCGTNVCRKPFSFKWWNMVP
Briefly: Inactivation kinetics, PAD3. As to conditions: for kinact/KI: a: single kobs determined; for Fold PAD3 Selectivity: kinact/KI relative to least inhibited isozyme (1.0). How it is done: as §1

The target in the next assay is T3, PAD2 (Homo sapiens, UniProt Q9Y2J8).
T3 construct: made in house
T3 sequence (Q9Y2J8 whole entry): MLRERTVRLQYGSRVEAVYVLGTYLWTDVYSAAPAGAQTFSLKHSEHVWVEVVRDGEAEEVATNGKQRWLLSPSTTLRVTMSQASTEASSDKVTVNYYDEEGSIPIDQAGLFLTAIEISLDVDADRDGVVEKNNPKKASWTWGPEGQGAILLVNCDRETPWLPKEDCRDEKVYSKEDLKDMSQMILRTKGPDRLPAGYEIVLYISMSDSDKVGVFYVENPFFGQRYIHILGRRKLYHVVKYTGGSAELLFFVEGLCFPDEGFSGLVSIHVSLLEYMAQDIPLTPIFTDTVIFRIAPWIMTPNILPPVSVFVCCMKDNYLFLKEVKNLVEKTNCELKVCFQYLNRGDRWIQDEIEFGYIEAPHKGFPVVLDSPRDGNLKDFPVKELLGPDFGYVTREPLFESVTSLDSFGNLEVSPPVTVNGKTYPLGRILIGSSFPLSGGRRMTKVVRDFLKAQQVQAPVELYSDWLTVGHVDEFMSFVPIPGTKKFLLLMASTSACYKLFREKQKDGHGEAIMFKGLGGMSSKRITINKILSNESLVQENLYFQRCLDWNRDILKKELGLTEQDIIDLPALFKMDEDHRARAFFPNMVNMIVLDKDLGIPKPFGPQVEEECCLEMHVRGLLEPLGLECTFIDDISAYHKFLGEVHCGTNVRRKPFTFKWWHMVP
Briefly: Inactivation kinetics, PAD2. The note with it: for kinact/KI: a: single kobs determined, b: from a linear fit, other footnotes: from kinact and KI; for Fold PAD2 Selectivity: kinact/KI relative to least inhibited isozyme (1.0). Here is the method: as §1

A further assay deals with T4, PAD1 (Homo sapiens, UniProt Q9ULC6).
T4 construct: made in house
T4 sequence (Q9ULC6 1-663): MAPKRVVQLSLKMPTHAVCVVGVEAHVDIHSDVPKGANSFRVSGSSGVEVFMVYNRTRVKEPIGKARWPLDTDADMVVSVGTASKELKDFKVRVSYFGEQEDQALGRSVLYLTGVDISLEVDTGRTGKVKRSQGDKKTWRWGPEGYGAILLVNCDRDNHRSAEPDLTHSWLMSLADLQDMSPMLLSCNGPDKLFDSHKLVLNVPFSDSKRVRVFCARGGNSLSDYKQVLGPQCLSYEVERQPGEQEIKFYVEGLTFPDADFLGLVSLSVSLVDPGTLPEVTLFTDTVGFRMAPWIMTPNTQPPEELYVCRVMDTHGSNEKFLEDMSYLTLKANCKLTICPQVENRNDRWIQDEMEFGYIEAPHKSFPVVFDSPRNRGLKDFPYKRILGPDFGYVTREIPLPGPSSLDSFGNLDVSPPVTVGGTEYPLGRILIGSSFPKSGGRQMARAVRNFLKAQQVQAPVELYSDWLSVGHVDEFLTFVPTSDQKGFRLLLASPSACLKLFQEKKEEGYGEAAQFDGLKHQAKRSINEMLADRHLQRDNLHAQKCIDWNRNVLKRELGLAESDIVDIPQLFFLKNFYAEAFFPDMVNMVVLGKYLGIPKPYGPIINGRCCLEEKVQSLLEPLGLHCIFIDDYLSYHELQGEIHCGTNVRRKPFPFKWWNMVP
Briefly: Inactivation kinetics, PAD1. As to conditions: for kinact/KI: a: single kobs determined, b: from a linear fit; for Fold PAD1 Selectivity: kinact/KI relative to least inhibited isozyme (1.0). Here is the method: as §1

T1 sequence (Q9UM07 whole entry): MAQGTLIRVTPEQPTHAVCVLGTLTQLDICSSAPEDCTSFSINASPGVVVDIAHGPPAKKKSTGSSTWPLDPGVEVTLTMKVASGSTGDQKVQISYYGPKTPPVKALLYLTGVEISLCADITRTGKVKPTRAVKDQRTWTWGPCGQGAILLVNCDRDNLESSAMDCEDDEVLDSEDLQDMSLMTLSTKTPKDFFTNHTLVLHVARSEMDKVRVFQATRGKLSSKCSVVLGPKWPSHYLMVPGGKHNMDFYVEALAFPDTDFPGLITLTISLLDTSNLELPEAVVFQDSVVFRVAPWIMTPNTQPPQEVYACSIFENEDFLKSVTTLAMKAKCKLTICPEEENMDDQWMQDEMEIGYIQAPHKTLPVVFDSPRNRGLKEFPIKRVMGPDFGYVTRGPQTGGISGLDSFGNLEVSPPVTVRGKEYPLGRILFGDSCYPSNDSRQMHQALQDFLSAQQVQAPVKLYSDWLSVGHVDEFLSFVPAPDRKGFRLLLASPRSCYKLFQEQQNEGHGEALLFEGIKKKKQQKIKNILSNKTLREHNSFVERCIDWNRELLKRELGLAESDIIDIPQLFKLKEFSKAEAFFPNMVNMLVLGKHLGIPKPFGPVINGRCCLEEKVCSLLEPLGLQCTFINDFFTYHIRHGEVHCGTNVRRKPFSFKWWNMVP

As usually defined, the kinact/KI is the maximal inactivation rate divided by the concentration that gives half of it. As usually defined, the kinact is the maximal first-order rate at which the target is inactivated. Regarding `CCN1Cc2cccc(C(=O)N[C@@H](CCCNC(=N)CF)c3nc4cc(OC)ccc4n3C)c2C1=O` [Compound 8o, N1-(2-ethyl-3-oxoisoindoline)benzoyl-N5-(2-fluoro-1-iminoethyl)-1-(5-methoxy-1-methyl-benzo[d]imidazol-2-yl)-L-ornithine], at PAD4, the kinact/KI was 68.3 M⁻¹ s⁻¹ and the “Fold PAD4 Selectivity” value is 3.8 fold. In addition, on PAD3, the inactivation efficiency (kinact/KI) was 17.8 M⁻¹ s⁻¹ and the “Fold PAD3 Selectivity” value is on record as 1.0 fold. At PAD2 (PAD2, table footnote), the Ki is 18.7 µM and the kinact is 0.0417 s⁻¹. At PAD2, the kinact/KI was 2230 M⁻¹ s⁻¹ and the “Fold PAD2 Selectivity” value stood at 125 fold. At PAD1, the kinact/KI was 842 M⁻¹ s⁻¹ and the “Fold PAD1 Selectivity” value was 47 fold.

Take `CCN1Cc2cccc(C(=O)N[C@@H](CCCNC(=N)CF)c3nc4cc(OC)ccc4n3CC)c2C1=O` [Compound 8y, N1-(2-ethyl-3-oxoisoindoline)benzoyl-N5-(2-fluoro-1-iminoethyl)-1-(5-methoxy-1-ethyl-benzo[d]imidazol-2-yl)-L-ornithine]: at PAD4, the kinact/KI was 9 M⁻¹ s⁻¹ and the “Fold PAD4 Selectivity” value is given as 1.0 fold. In addition, on PAD3, the kinact/KI was 24.7 M⁻¹ s⁻¹ and the “Fold PAD3 Selectivity” value was found to be 2.7 fold. At PAD2, the kinact/KI is 630 M⁻¹ s⁻¹ and the “Fold PAD2 Selectivity” value came out at 70 fold. At PAD1, the kinact/KI was 253 M⁻¹ s⁻¹ and the “Fold PAD1 Selectivity” value was determined as 28 fold.

Consider `CC(C)n1c([C@H](CCCNC(=N)CCl)NC(=O)c2ccc(-c3ccccc3)cc2)nc2ccccc21` [Compound 5l, N1-[1,4′-Phenyl]benzoyl-N5-(2-chloro-1-iminoethyl)-1-(1-isopropyl-benzo[d]imidazol-2-yl)-L-ornithine], for which, on PAD4, the kinact/KI is 15.8 M⁻¹ s⁻¹ and the “Fold PAD4 Selectivity” value came to 1.0 fold. Also, at PAD3, the inactivation efficiency (kinact/KI) was 192 M⁻¹ s⁻¹ and the “Fold PAD3 Selectivity” value came to 12 fold. Also, at PAD2, the kinact/KI was 24.8 M⁻¹ s⁻¹ and the “Fold PAD2 Selectivity” value was 1.6 fold. Further, on PAD1, the inactivation efficiency (kinact/KI) is 20.3 M⁻¹ s⁻¹ and the “Fold PAD1 Selectivity” value came out at 1.3 fold.

On to `COc1cccc2c1nc([C@H](CCCNC(=N)CCl)NC(=O)c1cccc3c1C(=O)N(C)C3)n2C` [8b′], for which, at PAD4, the kinact/KI is 106 M⁻¹ s⁻¹ and the “Fold PAD4 Selectivity” value is 1.0 fold. Besides, on PAD3, the kinact/KI was 228 M⁻¹ s⁻¹ and the “Fold PAD3 Selectivity” value is recorded as 2.2 fold. For the same compound, at PAD2, the kinact/KI was 1160 M⁻¹ s⁻¹ and the “Fold PAD2 Selectivity” value was 11 fold. Moreover, on PAD1, the kinact/KI was 719 M⁻¹ s⁻¹ and the “Fold PAD1 Selectivity” value amounted to 6.8 fold.

Turning to `CC(C)n1c([C@H](CCCNC(=N)CCl)NC(=O)c2cccc3c2C(=O)NC3)nc2ccccc21` [Compound 7h, N1-(3-oxoisoindoline)benzol-N5-(2-chloro-1-iminoethyl)-1-(1-isopropyl-benzo[d]imidazol-2-yl)-L-ornithine], on PAD4, the kinact/KI is 35 M⁻¹ s⁻¹ and the “Fold PAD4 Selectivity” value is reported as 1.0 fold. On PAD3, the kinact/KI was 112 M⁻¹ s⁻¹ and the “Fold PAD3 Selectivity” value is given as 3.2 fold. For the same compound, on PAD2, the kinact/KI is 282 M⁻¹ s⁻¹ and the “Fold PAD2 Selectivity” value came to 8.0 fold. For the same compound, at PAD1, the kinact/KI was 960 M⁻¹ s⁻¹ and the “Fold PAD1 Selectivity” value is reported as 27 fold.

`N=C(CF)NCCC[C@H](NC(=O)c1ccccc1)c1nc2ccccc2[nH]1` [Compound 5a, N1-benzoyl-N5-(2-fluoro-1-iminoethyl)-1-(1H-benzo[d]imidazol-2-yl)-L-ornithine]: at PAD4, the kinact/KI is 142 M⁻¹ s⁻¹ and the “Fold PAD4 Selectivity” value turned out to be 18 fold. Also, on PAD3, the kinact/KI was 15 M⁻¹ s⁻¹ and the “Fold PAD3 Selectivity” value is listed as 1.9 fold. For the same compound, on PAD2, the kinact/KI is 7.92 M⁻¹ s⁻¹ and the “Fold PAD2 Selectivity” value was found to be 1.0 fold. Further, at PAD1, the kinact/KI was 75 M⁻¹ s⁻¹ and the “Fold PAD1 Selectivity” value worked out at 9.5 fold.

As for `CCN1Cc2cccc(C(=O)N[C@@H](CCCNC(=N)CF)c3nc4ccccc4n3C)c2C1=O` [Compound 8c, N1-(2-ethyl-3-oxoisoindoline)benzoyl-N5-(2-fluoro-1-iminoethyl)-1-(1-methyl-benzo[d]imidazol-2-yl)-L-ornithine], on PAD4, the kinact/KI was 50.5 M⁻¹ s⁻¹ and the “Fold PAD4 Selectivity” value is recorded as 1.0 fold. At PAD3, the kinact/KI is 95.8 M⁻¹ s⁻¹ and the “Fold PAD3 Selectivity” value is 1.9 fold. At PAD2, the kinact/KI was 546 M⁻¹ s⁻¹ and the “Fold PAD2 Selectivity” value amounted to 11 fold. In addition, on PAD1, the kinact/KI was 308 M⁻¹ s⁻¹ and the “Fold PAD1 Selectivity” value is recorded as 6.1 fold.

Regarding `CCOc1cccc2c1nc([C@H](CCCNC(=N)CCl)NC(=O)c1cccc3c1C(=O)N(CC)C3)n2C` [Compound 8n, N1-(2-ethyl-3-oxoisoindoline)benzoyl-N5-(2chloro-1-iminoethyl)-1-(4-ethoxy-1-methyl-benzo[d]imidazol-2-yl)-L-ornithine], at PAD4, the kinact/KI was 25.2 M⁻¹ s⁻¹ and the “Fold PAD4 Selectivity” value is 1.0 fold. Also, on PAD3, the kinact/KI was 138 M⁻¹ s⁻¹ and the “Fold PAD3 Selectivity” value is 5.5 fold. For the same compound, on PAD2, the kinact/KI is 1090 M⁻¹ s⁻¹ and the “Fold PAD2 Selectivity” value was 43 fold. At PAD1, the kinact/KI is 302 M⁻¹ s⁻¹ and the “Fold PAD1 Selectivity” value was found to be 12 fold.

In the case of `CCN1Cc2cccc(C(=O)N[C@@H](CCCNC(=N)CCl)c3nc4cc(OC)ccc4n3CC)c2C1=O` [Compound 8z, N1-(2-ethyl-3-oxoisoindoline)benzoyl-N5-(2-chloro-1-iminoethyl)-1-(5-methoxy-1-ethyl-benzo[d]imidazol-2-yl)-L-ornithine], on PAD4, the kinact/KI is 23.5 M⁻¹ s⁻¹ and the “Fold PAD4 Selectivity” value is recorded as 1.0 fold. At PAD3, the kinact/KI is 198 M⁻¹ s⁻¹ and the “Fold PAD3 Selectivity” value turned out to be 8.4 fold. At PAD2, the kinact/KI was 637 M⁻¹ s⁻¹ and the “Fold PAD2 Selectivity” value is 27 fold. Also, at PAD1, the kinact/KI is 501 M⁻¹ s⁻¹ and the “Fold PAD1 Selectivity” value was 21 fold.

With `CCN1Cc2cccc(C(=O)N[C@@H](CCCNC(=N)CCl)c3nc4ccccc4[nH]3)c2C1=O` [Compound 8b, N1-(2-ethyl-3-oxoisoindoline)benzol-N5-(2-chloro-1-iminoethyl)-1-(1H-benzo[d]imidazol-2-yl)-L-ornithine], on PAD4, the kinact/KI was 810 M⁻¹ s⁻¹ and the “Fold PAD4 Selectivity” value turned out to be 1.4 fold. In addition, at PAD3, the kinact/KI is 583 M⁻¹ s⁻¹ and the “Fold PAD3 Selectivity” value came out at 1.0 fold. Also, at PAD2, the kinact/KI is 888 M⁻¹ s⁻¹ and the “Fold PAD2 Selectivity” value was found to be 1.5 fold. At PAD1, the kinact/KI is 2530 M⁻¹ s⁻¹ and the “Fold PAD1 Selectivity” value is recorded as 4.3 fold.

Regarding `N=C(CCl)NCCC[C@H](NC(=O)c1ccc(-c2ccc(F)cc2)cc1)c1nc2ccccc2[nH]1` [Compound 5p, N1-4′-F-[1,1′-Phenyl]benzol-N5-(2-chloro-1-iminoethyl)-1-(1H-benzo[d]imidazol-2-yl)-L-ornithine], at PAD4, the kinact/KI was 280 M⁻¹ s⁻¹ and the “Fold PAD4 Selectivity” value turned out to be 3.1 fold. On PAD3, the kinact/KI was 176 M⁻¹ s⁻¹ and the “Fold PAD3 Selectivity” value is recorded as 1.9 fold. In addition, at PAD2, the kinact/KI is 91.7 M⁻¹ s⁻¹ and the “Fold PAD2 Selectivity” value amounted to 1.0 fold. Also, on PAD1, the kinact/KI was 343 M⁻¹ s⁻¹ and the “Fold PAD1 Selectivity” value was 3.7 fold.
